Tests used:
[1] = system: mouse colorectal cancer cell line CT26.WT; experiment: ICD induction evaluation (in vitro): Calreticulin (CRT) on cell surface by flow cytometry; format: cell-based; conditions: CT26.WT after 24 hours; compound (A) 4 μM, MTX 1 μM; adjusted MFI
Procedure: In cancer cells treated with different compounds, the expression level of Calreticulin (CRT), which serves as an index of Immunogenic cell death (ICD), was measured. Cells of mouse colorectal cancer cell line CT26.WT were seeded in a 6-well plate and cultured overnight. After the supernatant was removed, the cells were washed twice with PBS. In RPMI1640 culture solution containing 10% FBS (R10), compound (A), (4 μM) or Mitoxantrone (MTX) (1 μM) was added. As a control, DMSO was added in the same amount as that of compound (A) (R10-DMSO). After completion of drug treatment, CT26.WT cells were collected and suspended in PBS, and then, seeded in a 96-well (round bottom) plate at 1×10^6 cells/well. […] The expression level of CRT on the cancer cells was measured by flow cytometry (FACS CantoII: manufactured by Becton, Dickinson and Company). Data were analyzed by FlowJo (manufactured by TreeStar Inc). Note that, LIVE/DEAD Fixable Violet-positive cells were determined as dead cells and excluded from the analysis. The mean fluorescence intensity (MFI) of CRT was calculated. The value, which was obtained by subtracting the MFI of the cells treated with Isotype control from the MFI of stained cells, was determined as the adjusted MFI. […] The results satisfying P<0.05 (two-sided test) were determined as being significant (***: P<0.001, **: P<0.01).

[2] = system: spleen cells (CD4-positive / CD8-positive T cells, Tcm); experiment: FCM analysis of spleen cells (T cell populations); format: in vivo, mouse; conditions: for ratio occupied by Tcm in CD4-positive T cells compared to NCD treatment group: PBS administration (FIG. 29A); for ratio occupied by Tcm in CD8-positive T cells compared to NCD treatment group: PBS administration (FIG. 29B); for ratio occupied by CD4-positive T cells in the whole cells / ratio occupied by CD8-positive T cells in the whole cells: plus anti-SIRPα antibody (5C12) (FIG. 30C)
Procedure: From each of the mice used in Example 3, the spleen was excised out and spleen cells were prepared by use of PBS and seeded in a 96-well (round bottom) plate at 1×10^6 cells/well. After centrifugation was carried out at 1200 rpm for 3 minutes, the supernatant was removed. […] (manufactured by Biolegend, Inc.) diluted to 1/20 with PBS was added up to 100 μL/well. After standing at room temperature for 30 minutes, centrifugation was carried out at 1200 rpm for 3 minutes. The supernatant was removed, and primary-antibody solutions (FITC anti-CD36 antibody, PerCP anti-CD4 antibody, PE/Cy7 anti-CD8a antibody, APC anti-CD62L antibody, and APC/Cy7 anti-CD44 antibody: all manufactured by Biolegend, Inc.) were diluted with FACS buffer (1 mM EDTA, 5% FBS) and added in an amount of 50 μL/well. After standing in a dark place at 4° C. for 25 minutes, centrifugation was carried out at 1200 rpm for 3 minutes, and then the supernatant was removed. Washing was carried out twice with FACS buffer (200 μL/wells). After centrifugation, the supernatant was removed. A suspension was made with Stabilizing Fixative (manufactured by Becton, Dickinson and Company) and allowed to stand at room temperature for 10 minutes. Measurement was carried out by flow cytometry (FACS CantoII: manufactured by Becton, Dickinson and Company). Data were analyzed by use of FlowJo (manufactured by TreeStar Inc). Comparison between the NCD group and each of the drug treatment groups, or comparison among the PBS administration group, the anti-SIRPα antibody group and an anti-CD47 antibody group in each of the cell treatment groups was made in accordance with the Dunnett's multiple comparison. P value was expressed to four decimal places and the results satisfying P<0.05 (two-sided test) were determined as being significant.
Note that individual populations in the CD4-positive T cells and CD8-positive T cells were identified in the following conditions.
Tcm: central memory T cells [CD44(+) CD62L(+)]

[3] = system: CT26.WT-reactive T cells in mouse spleen cells; experiment: ELISPOT analysis of IFNγ-producing spleen cells; format: in vivo
Procedure: The number of CT26.WT-reactive T cells in mouse spleen cells was determined by Murine IFNγ Single-Color Enzymatic ELISPOT Assay (manufactured by […] TECHNOLOGY LIMITED), more specifically, counting of the number of IFNγ spots produced from individual spleen cells. From each of the mice used in Example 3, the spleen was harvested and the number of spleen cells was adjusted to be 1.0×10^6 cells/mL by use of CTL test medium. CT26.WT cells were treated with 10 μg/mL mitomycin C for 2 hours and washed. Thereafter, the cells were collected, adjusted to be 1.0×10^6 cells/mL by CTL test medium, and used as an antigen. The spleen cells and the antigen were added each in an amount of 100 μL/well in a PVDF-membrane plate pre-coated with an anti-IFNγ antibody and co-cultured at 37° C. for 24 hours. Thereafter, the color was developed using the attached antibody and coloring reagent and the number of IFNγ-producing spleen cells was determined. Comparison between the NCD cell inoculation group and compound (A) or MTX treatment group was made in accordance with the Wilcoxon rank sum test. P value was expressed to four decimal places and the results satisfying P<0.05 (two-sided test) were determined as being significant.

[4] = system: cells treated with compound (A); conditions: Clin. Invest. 2020: 130(1): 374-388; cited from earlier work
[5] = Clin. Invest. 2020: 130(1): 374-388; cited from earlier work
[6] = plus anti-CD47 antibody (MIAP410) (FIG. 30A)
[7] = plus anti-CD47 antibody (MIAP410) (FIG. 30B)
[8] = plus anti-SIRPα antibody (5C12) (FIG. 30A)
[9] = plus anti-SIRPα antibody (5C12) (FIG. 30B)
[10] = drug-treated CT26.WT cells inoculated, anti-SIRPα antibody (5C12) administration

| Structure (SMILES) | CRT expression on cell surface relative to control group [1] | ratio occupied by Tcm in CD4-positive T cells compared to NCD treatment group [2] | ratio occupied by Tcm in CD8-positive T cells compared to NCD treatment group [2] | ratio occupied by Tcm in CD4-positive T cells compared to the _PBS group of the same drug [2, 6] | ratio occupied by Tcm in CD8-positive T cells compared to the _PBS group of the same drug [2, 7] | ratio occupied by Tcm in CD4-positive T cells compared to the _PBS group of the same drug [2, 8] | ratio occupied by Tcm in CD8-positive T cells compared to the _PBS group of the same drug [2, 9] | ratio occupied by CD4-positive T cells in the whole cells [2] | ratio occupied by CD8-positive T cells in the whole cells [2] | antigen specific T cell induction compared to the MTX treatment group ([3]; ELISPOT, spleen cells) | number of IFNγ-producing spleen cells compared to NCD_PBS ([3]; drug-treated CT26.WT cells inoculated, PBS administration) | number of IFNγ-producing spleen cells compared to NCD_PBS [3, 10] | number of IFNγ-producing spleen cells compared to compound (A) PBS group [3, 10] | HMGB1 release from treated cells [4] | antitumor effect by vaccination of the treated cells [5] |
| --- | --- | --- | --- | --- | --- | --- | --- | --- | --- | --- | --- | --- | --- | --- | --- |
| O=C1c2c(O)ccc(O)c2C(=O)c2c(NCCNCCO)ccc(NCCNCCO)c21 [MTX, Mitoxantrone, reference compound] | about 2.6 times | significantly increased | significantly increased | tendency to increase | tendency to increase | tendency to increase | significantly increased | tendency to increase | significantly increased |  |  |  |  |  |  |
| CC[C@@]1(O)C(=O)OCc2c1cc1n(c2=O)Cc2c-1nc1cc(F)c(C)c3c1c2[C@@H](NC(=O)CO)CC3 [compound (A)] | about 12.7 times | significantly increased | significantly increased | significantly decreased | significantly decreased | tendency to increase | substantially the same value | significantly increased | tendency to increase | tendency to further enhance | tendency to increase | significantly increased | significantly increased | released | limited antitumor effect |
